Reference: US5140025A, “Thienotricylene for the treatment of bronchial diseases” (BYK Gulden Lomberg Chemische Fabrik GmbH, priority 1987, dated 1992)

Assays:
[1] = system: acetylcholine-induced bronchospasm; test: Acetylcholine-induced bronchospasm in anaesthetised, spontaneously breathing guinea pigs, intravenous administration; assay type: in vivo, guinea pig (Pirbright White); conditions: for Mean bronchospasmolytic activity, percentage increase of Vmaxe vs control spasm / Mean bronchospasmolytic activity, percentage increase of tidal volume (TV) vs control spasm: 0-60 min; for Mean bronchospasmolytic activity, percentage increase of Vmaxe vs control spasm / Mean bronchospasmolytic activity, percentage increase of tidal volume (TV) vs control spasm / Bronchospasmolytic activity, percentage increase of Vmaxe vs control spasm / Bronchospasmolytic activity, percentage increase of tidal volume (TV) vs control spasm: x±SEM, N=10; for Bronchospasmolytic activity, percentage increase of Vmaxe vs control spasm / Bronchospasmolytic activity, percentage increase of tidal volume (TV) vs control spasm: at 60 min
From the text: Effect of Intravenously Administered Telenzepine on Acetylchline-Induced Bronchospasms in Anaesthetised, Spontaneously Breathing Guinea Pigs
Method for simultaneously recording pharmacodynamic or toxic effects on interior sensitive receptors and the respiration of guinea pigs (U. Kilian, E. Muller, E. Ch. Dittmann and J. Hamacher, Arzneim.-Forsch. 28, 1699-1708, 1978).
Pirbright White, Interfauna (Tuttlingen), 350-450 g, male.
Ethylurethane 1.2 g/kg i.p. as 12.5% aqueous solution.
Pneumotachogram: Maximum flow velocities of the respiratory air during expiration (Vmaxe, "peak flow"), tidal volume (TV).
Acetylcholine as spasmogen, 0.2-0.3 μmol/kg i.v., dissolved in 0.9% NaCl.
-10 min control spasm, 0 min administration of substance, +2, +10, +20, +30, +60 min test spasms.
Determination of the effect of telenzepine on the parameters (mean and standard error of mean, n=10) and calculation of the bronchospasmolytic activity from this as percentage inhibition of the acetylcholine-induced decrease of Vmaxe and TV by means of time/effect curves. Computation of a dose/response curve of the mean bronchospasmolytic activity during the observation time (0-60 min) from the areas under the time/effect curves and reading of 1 h ED50 values. Determination of a dose/response curve of the bronchospasmolytic activity at time 60 min and reading ED50 values.

M1 receptor (ganglionic) = test: Receptor affinity, electrically stimulated rabbit vas deferens in organ bath; conditions: vas deferens of the rabbit, agonist McN-A-343, Schild slope normalised to 1.00; listed as Compound 3
Protocol: Isometric contractions (HSE force transducer, K-30; tilt and zones, BD-9 chart recorder) of isolated seminal duct sections of rabbits (male, white New Zealand rabbits, 2.5-3.5 kg) were recorded in an organ bath (10 ml, 31° C., gassing with carbogen, initial tension of the organs 0.75 g) under electrical stimultion (HSE stimulator; hook-shaped Pt electrode 1 cm below the water surface of the bath; 30 V, 0.5 ms, 0.05 Hz). After an equilibration time of 30 minutes, cumulative dose/response curves of McN-A-343 (10^-7 -2×10^-6 M) were recorded simultaneously on 8 organ sections in each case (control curves), using the technique described by van Rossum (1963). After 3 control curves, a fixed concentration of the agonist (for example 5×10^-7, 10^-6, 3×10^-6, 10^-5 or 3×10^-5 M) per organ section was applied and, after stabilisation of the effect, increasing concentrations of the agonist to be tested were added. The nutrient solution used had the following composition (mM): NaCl 118, KCl 4.7, CaCl2 ·2H2 O 2.5, MgSO4 ·7H2 O 0.6, KH2 PO 4 1.2, NaHCO3 25.0 and glucose 11.1. In order to block α2 -adrenoreceptors, the nutrient solution additionally contained 10^-6 M yohimbine.

M2 receptor (cardiac) = target: T1, M2 receptor (cardiac) (Rattus norvegicus, UniProt P10980); test: Receptor affinity, electrically stimulated left atrium of the rat; conditions: agonist carbachol, Schild slope normalised to 1.00, read-out: pA2 ± SEM, M2 receptor (cardiac) (converted)
T1 construct: isolated, left atria of rats (male 250-350 g); from tissue; host or cells: rat left atrium (isolated, male rats 250-350 g)
T1 sequence (P10980 1-466): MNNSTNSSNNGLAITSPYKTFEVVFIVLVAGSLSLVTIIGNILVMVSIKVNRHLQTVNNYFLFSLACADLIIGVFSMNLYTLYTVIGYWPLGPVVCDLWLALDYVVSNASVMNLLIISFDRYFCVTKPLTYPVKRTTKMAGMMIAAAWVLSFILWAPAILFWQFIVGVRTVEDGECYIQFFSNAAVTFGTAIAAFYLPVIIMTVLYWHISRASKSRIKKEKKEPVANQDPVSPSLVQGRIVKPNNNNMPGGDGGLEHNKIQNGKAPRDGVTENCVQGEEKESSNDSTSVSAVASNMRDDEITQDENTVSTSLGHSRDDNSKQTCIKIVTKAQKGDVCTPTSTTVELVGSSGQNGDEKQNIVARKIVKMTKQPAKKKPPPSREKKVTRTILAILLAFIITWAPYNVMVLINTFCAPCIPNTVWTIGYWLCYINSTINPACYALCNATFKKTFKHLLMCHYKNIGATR
From the text: The affinity of (±)-4,9-dihydro-3-methyl-4-[(4-methyl-1-piperazinyl)-acetyl]-10H-thieno[3,4-b][1,5]benzodiazepin-10-one (telenzepine, compound 2 in Table 7) and its conformers [(+)-enantiomer=compound 1, (-)-enantiomer=compound 3] to muscarinic M1 (ganglionic type) and M2 (cardiac type) receptors was investigated by the following methods:
Electrically Stimulated Left Atrium of the Rat (Eltze et al., 1985, Europ. J. Pharmacol. 112, 211-224).
Isometric contractions (HSE force transducer, K-30; Watanabe Linear Corder Mark 5) of isolated, left atria of rats (male 250-350 g) were recorded in an organ bath (10 ml, Tyrode nutrient solution, 31° C., gassing with carbogen, initial tension of the organs 0.25 g) under electrical stimulation (HSE stimulator; hook-shaped Pt electrodes at the base of the bath and immersed, annular Pt electrodes 1 cm below the water surface of the bath; 7 V, 3 ms, 2 Hz). After an equilibration time of 30 minutes, cumulative dose/response curves of carbachol (10^-8 -10^-6 M, in the presence of the antagonist also up to 10^-5 or 10^-4 M) were recorded simultaneously on 4 organs in each case by the technique described by van Rossum (1963). The substance to be tested was added to the organ baths 20 minutes before application of the carbachol. The pauses between the individual dose/response curves were 30-45 minutes.
The Tyrode nutrient solution used had the following composition (mM): NaCl 130, KCl 2.0, CaCl2 ·2H2 O 1.8, MgCl2 ·6H2 O 0.98, NaHCO3 12.0, NaH2 PO4 0.42 and glucose monohydrate 5.6. pA2 values (-log of the molar dissociation constants of the competitive antagonist-receptor complex) were determined by linear regression using the Schild plot: pA2 =-log [B/(x-1)], (Arunlakshana and Schild, 1959).
Table 7 below gives pA2 values of the substances, for which the slope of the regression lines for theoretically competitive antagonism have been normalised to 1.00 (Tallarida et al., 1979).

[2] = system: modified Shay rat (lesion formation and acid secretion); test: Antiulcerogenic and secretion-inhibiting action on the modified Shay rat; assay type: in vivo
From the text: The excellent gastric protective action and the gastric secretion-inhibiting action of the compound (+)-4,9-dihydro-3-methyl-4-[(4-methyl-1-piperazinyl)-acetyl]-10H-thieno[3,4-b][1,5]benzodiazepin-10-one (=compound 1 in Table 8 below) in comparison with the corresponding (-)-enantiomer (=compound 3) and with the racemate (=compound 2) can be detected in studies on the modified Shay rat. The effect of the stated compounds after intravenous (i.v.) administration on the formation of lesions and the acid secretion in the modified Shay rat is shown in Table 8 below.
Ulcers are provoked in rats (female, 180-200 g, 4 animals per cage on high grids) which have fasted for 24 hours, by pylorus ligature (under diethyl ether anaesthesia) and oral administration of 100 mg/10 ml/kg of acetylsalicylic acid. The substances to be tested are administered intravenously (1 ml/kg) directly after the pylorus ligature. The wound is closed by means of Michel clamps. 4 hours afterwards, the animals are sacrificed under anaesthesia with ether by Atlas dislocation, and resection of the stomach.
The stomach is opened along the greater curvature and clamped to a cork sheet, the amount of secreted gastric juice (volume) is determined first and its HCl content (titration with sodium hydroxide solution) being determined subsequently. The number and size (=diameter) of ulcers present are determined using a stereomicroscope, under 10×magnification. The product of severity (according to the following point scale) and number of ulcers serves as an individual lesion index.
The reduction in the means lesion index of each treated group compared with the control group (=100%) serves as a measure of the antiulcerogenic effect. The ED50 is the dose which reduces the mean lesion index or the HCl secretion by 50% compared with the control.

[3] = at time 60 min after administration, 60 min
[4] = modified Shay rat, i.v., interpolated dose, 4 h, N=24, listed as 3, 240 min

pA2 ± SEM, M1 receptor (ganglionic) (M1 receptor (ganglionic)): 6.98 ± 0.14 | Kb (M2 receptor (cardiac)): 759 nM
SMILES: Cc1scc2c1N(C(=O)CN1CCN(C)CC1)c1ccccc1NC2=O [(-)-telenzepine, (-)-4,9-dihydro-3-methyl-4-[(4-methyl-1-piperazinyl)-acetyl]-10H-thieno-[3,4-b][1,5]benzodiazepin-10-one]
Mean bronchospasmolytic activity, percentage increase of Vmaxe vs control spasm ([1]; 0.1 μmol/kg i.v.): 2 ± 1% | Mean bronchospasmolytic activity, percentage increase of tidal volume (TV) vs control spasm ([1]; 0.1 μmol/kg i.v.): 0 ± 2% | Mean bronchospasmolytic activity, percentage increase of Vmaxe vs control spasm ([1]; 1 μmol/kg i.v.): 17 ± 3% | Mean bronchospasmolytic activity, percentage increase of tidal volume (TV) vs control spasm ([1]; 1 μmol/kg i.v.): 20 ± 5% | Mean bronchospasmolytic activity, percentage increase of Vmaxe vs control spasm ([1]; 5 μmol/kg i.v.): 65 ± 4% | Mean bronchospasmolytic activity, percentage increase of tidal volume (TV) vs control spasm ([1]; 5 μmol/kg i.v.): 74 ± 4% | Mean bronchospasmolytic activity, percentage increase of Vmaxe vs control spasm ([1]; 10 μmol/kg i.v.): 79 ± 2% | Mean bronchospasmolytic activity, percentage increase of tidal volume (TV) vs control spasm ([1]; 10 μmol/kg i.v.): 87 ± 2% | Mean bronchospasmolytic activity, percentage increase of Vmaxe vs control spasm ([1]; 30 μmol/kg i.v.): 89 ± 3% | Mean bronchospasmolytic activity, percentage increase of tidal volume (TV) vs control spasm ([1]; 30 μmol/kg i.v.): 98 ± 3% | Bronchospasmolytic activity, percentage increase of Vmaxe vs control spasm ([1]; 0.1 μmol/kg i.v.): 1 ± 1% | Bronchospasmolytic activity, percentage increase of tidal volume (TV) vs control spasm ([1]; 0.1 μmol/kg i.v.): -3 ± 3% | Bronchospasmolytic activity, percentage increase of Vmaxe vs control spasm ([1]; 1 μmol/kg i.v.): 18 ± 3% | Bronchospasmolytic activity, percentage increase of tidal volume (TV) vs control spasm ([1]; 1 μmol/kg i.v.): 22 ± 5% | Bronchospasmolytic activity, percentage increase of Vmaxe vs control spasm ([1]; 5 μmol/kg i.v.): 77 ± 5% | Bronchospasmolytic activity, percentage increase of tidal volume (TV) vs control spasm ([1]; 5 μmol/kg i.v.): 88 ± 6% | Bronchospasmolytic activity, percentage increase of Vmaxe vs control spasm ([1]; 10 μmol/kg i.v.): 77 ± 3% | Bronchospasmolytic activity, percentage increase of tidal volume (TV) vs control spasm ([1]; 10 μmol/kg i.v.): 89 ± 3% | Bronchospasmolytic activity, percentage increase of Vmaxe vs control spasm ([1]; 30 μmol/kg i.v.): 88 ± 4% | Bronchospasmolytic activity, percentage increase of tidal volume (TV) vs control spasm ([1]; 30 μmol/kg i.v.): 94 ± 3% | ED50 of bronchospasmolytic activity, TV [1, 3]: 2.0 μmol/kg i.v. | ED50 of bronchospasmolytic activity, Vmaxe [1, 3]: 3.2 μmol/kg i.v. | onset of efficacy ([1]; doses between 0.1 and 1 μmol/kg i.v.): significantly delayed | ED50 of mean bronchospasmolytic activity, TV ([1]; mean activity 0-60 min, 60 min): 2.5 μmol/kg i.v. | ED50 of mean bronchospasmolytic activity, Vmaxe ([1]; mean activity 0-60 min, 60 min): 3.1 μmol/kg i.v. | Inhibition (of acid secretion) following 3 mg ([2]; 3 mg (i.v.), footnote to the ED50 of HCl secretion): 46% | Gastric protective action, reduction of lesion index, about ED50 [2, 4]: ~0.65 mg/kg i.v. | Inhibition of acid secretion, reduction of HCl secretion, about ED50 [2, 4]: ~3.0 mg/kg i.v.
